We go through 1 molecule from ChEMBL document CHEMBL5154726, “Identification of triazolopyridine derivatives as a new class of AhR agonists and evaluation of anti-psoriasis effect in a mouse model” (Eur J Med Chem, 2022).

For data set [1], the target named is T1, Aryl hydrocarbon receptor (Homo sapiens, UniProt P35869).
T1 sequence (P35869 whole entry): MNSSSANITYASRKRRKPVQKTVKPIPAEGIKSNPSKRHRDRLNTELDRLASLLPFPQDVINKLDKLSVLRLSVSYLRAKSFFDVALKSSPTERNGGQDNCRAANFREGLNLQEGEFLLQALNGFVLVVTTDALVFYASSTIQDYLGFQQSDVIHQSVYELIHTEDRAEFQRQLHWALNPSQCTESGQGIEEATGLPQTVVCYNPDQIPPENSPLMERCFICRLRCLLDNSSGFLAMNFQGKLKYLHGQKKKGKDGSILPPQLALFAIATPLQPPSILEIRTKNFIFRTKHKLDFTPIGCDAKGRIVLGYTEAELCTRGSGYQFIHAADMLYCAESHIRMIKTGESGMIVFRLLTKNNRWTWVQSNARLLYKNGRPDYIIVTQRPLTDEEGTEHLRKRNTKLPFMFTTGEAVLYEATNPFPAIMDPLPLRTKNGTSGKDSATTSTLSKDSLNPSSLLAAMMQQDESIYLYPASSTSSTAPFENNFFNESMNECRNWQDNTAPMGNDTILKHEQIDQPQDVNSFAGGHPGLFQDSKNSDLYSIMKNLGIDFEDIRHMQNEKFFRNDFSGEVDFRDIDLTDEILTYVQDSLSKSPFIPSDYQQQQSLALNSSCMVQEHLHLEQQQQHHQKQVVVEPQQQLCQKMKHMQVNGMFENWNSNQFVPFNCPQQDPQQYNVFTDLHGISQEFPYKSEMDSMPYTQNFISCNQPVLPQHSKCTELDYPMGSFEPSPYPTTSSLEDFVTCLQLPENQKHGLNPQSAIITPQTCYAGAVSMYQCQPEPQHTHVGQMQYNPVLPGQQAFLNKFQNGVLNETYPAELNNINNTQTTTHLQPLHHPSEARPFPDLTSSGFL
Kind of data set: Agonist activity at AhR signalling in human HaCaT cells assessed as increase in CYP1A1 mRNA expression by qRT-PCR analysis. Particulars: 10 µM, DDE = dose-dependent effect. The data set is classed as cell-based.

The target of data set [2] is T1, Aryl hydrocarbon receptor. Kind of data set: Agonist activity at AhR in human recombinant HepG2-Lucia AhR cell incubated for 24 hrs by luciferase reporter gene assay. It is filed as cell-based.
The nature of data set [3]: Efflux ratio of apparent permeability in MDCK cells. The note with it: dog. It is filed as ADME, cell-based, Canis lupus familiaris.
A further data set deals with HaCaT. Kind of data set: Downregulation of CYP1A1 gene expression in AhR knockdown human HaCaT cells incubated for 48 hrs by qRT-PCR analysis. It is filed as functional, cell-based.
For data set [4], the target named is T1, Aryl hydrocarbon receptor. Kind of data set: Induction of Ahr signalling in human HaCaT cells assessed as upregulation of FLG expression incubated for 48 hrs. It is filed as cell-based.
In data set [5] the target is T1, Aryl hydrocarbon receptor. Kind of data set: Induction of Ahr signalling in human HaCaT cells assessed as upregulation of IVL expression incubated for 48 hrs. The data set is classed as cell-based.
In data set [6] the target is T1, Aryl hydrocarbon receptor. Kind of data set: Induction of Ahr signalling in human HaCaT cells assessed as upregulation of HRNR expression incubated for 48 hrs. The data set is classed as cell-based.
Data set [7] can be described thus: Cytotoxicity against human HUVEC cells assessed as reduction in cell viability measured after 72 hrs by MTT assay. The data set is classed as toxicity, cell-based. In general terms: Formazan colour is commonly taken as a measure of viable cells.
The target of data set [8] is Voltage-gated inwardly rectifying potassium channel KCNH2 (Homo sapiens, UniProt Q12809). Kind of data set: Inhibition of hERG channel in HEK293 cells by whole-cell patch clamp assay. The data set is classed as toxicity, cell-based.
Voltage-gated inwardly rectifying potassium channel KCNH2, sequence (Q12809 whole entry): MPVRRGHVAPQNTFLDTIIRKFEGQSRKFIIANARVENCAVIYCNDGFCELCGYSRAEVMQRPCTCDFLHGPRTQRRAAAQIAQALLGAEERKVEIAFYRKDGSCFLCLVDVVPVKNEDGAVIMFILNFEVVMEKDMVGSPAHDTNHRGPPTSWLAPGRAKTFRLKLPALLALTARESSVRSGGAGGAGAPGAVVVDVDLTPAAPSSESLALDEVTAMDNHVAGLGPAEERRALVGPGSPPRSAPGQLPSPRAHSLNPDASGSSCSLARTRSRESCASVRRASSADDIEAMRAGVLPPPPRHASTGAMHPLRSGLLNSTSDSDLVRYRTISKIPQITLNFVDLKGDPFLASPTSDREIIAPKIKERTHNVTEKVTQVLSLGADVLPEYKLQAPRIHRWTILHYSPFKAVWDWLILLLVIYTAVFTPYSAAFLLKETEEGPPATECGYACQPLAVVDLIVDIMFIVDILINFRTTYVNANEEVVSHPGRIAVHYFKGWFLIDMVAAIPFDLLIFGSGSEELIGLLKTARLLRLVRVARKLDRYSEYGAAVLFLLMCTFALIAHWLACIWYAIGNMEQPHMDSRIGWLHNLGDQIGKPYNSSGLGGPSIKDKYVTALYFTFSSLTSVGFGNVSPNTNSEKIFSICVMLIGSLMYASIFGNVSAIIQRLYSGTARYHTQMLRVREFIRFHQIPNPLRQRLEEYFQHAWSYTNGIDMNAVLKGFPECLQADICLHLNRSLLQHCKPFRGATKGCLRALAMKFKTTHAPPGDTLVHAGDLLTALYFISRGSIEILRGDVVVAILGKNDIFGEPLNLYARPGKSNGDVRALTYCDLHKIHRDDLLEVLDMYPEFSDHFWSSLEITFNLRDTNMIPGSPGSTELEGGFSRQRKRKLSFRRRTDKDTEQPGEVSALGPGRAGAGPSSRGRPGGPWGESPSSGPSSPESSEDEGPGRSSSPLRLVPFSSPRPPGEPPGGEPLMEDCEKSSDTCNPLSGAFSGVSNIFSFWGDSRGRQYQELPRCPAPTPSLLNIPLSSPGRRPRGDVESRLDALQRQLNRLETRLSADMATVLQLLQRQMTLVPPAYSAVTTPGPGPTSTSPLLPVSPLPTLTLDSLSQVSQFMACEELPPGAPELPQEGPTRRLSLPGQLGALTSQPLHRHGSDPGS
Data set [9] can be described thus: Tmax in Sprague-Dawley rat at 10 mg/kg, po measured up to 24 hrs by LC-MS/MS analysis. The note with it: in vivo. It is filed as ADME, organism-based.
Data set [10] is described as follows: AUC (0 to t) in Sprague-Dawley rat at 5 mg/kg, iv measured up to 24 hrs by LC-MS/MS analysis. It is filed as ADME, organism-based. The arrangement: dose 5 mg/kg, time < 24 hrs, route iv. Particulars: in vivo.
Data set [11] can be described thus: AUC (0 to infinity) in Sprague-Dawley rat at 5 mg/kg, iv measured up to 24 hrs by LC-MS/MS analysis. On the set-up: dose 5 mg/kg, time < 24 hrs, route iv. The note with it: in vivo. It is filed as ADME, organism-based.
Data set [12] in a line: MRT in Sprague-Dawley rat at 5 mg/kg, iv measured up to 24 hrs by LC-MS/MS analysis. Particulars: in vivo. It is filed as ADME, organism-based.
Data set [13] can be described thus: MRT in Sprague-Dawley rat at 10 mg/kg, po measured up to 24 hrs by LC-MS/MS analysis. The data set is classed as ADME, organism-based. The note with it: in vivo.
Data set [14] can be described thus: Volume of distribution at steady state in Sprague-Dawley rat at 5 mg/kg, iv measured up to 24 hrs by LC-MS/MS analysis. The data set is classed as ADME, organism-based. Particulars: in vivo, read-out: Vdss.
The nature of data set [15]: Oral bioavailability in Sprague-Dawley rat at 10 mg/kg measured up to 24 hrs by LC-MS/MS analysis. It is filed as ADME, organism-based. The note with it: in vivo.
Another data set addresses Cytochrome P450 2C19 (Homo sapiens, UniProt P33261). Kind of data set: Inhibition of CYP2C19 in human liver microsomes in presence of NADPH by LC-MS/MS analysis. It is filed as ADME, Microsome.
The next data set concerns the target Cytochrome P450 3A4 (Homo sapiens, UniProt P08684). Kind of data set: Inhibition of CYP3A4 in human liver microsomes in presence of NADPH by LC-MS/MS analysis. The data set is classed as ADME, Microsome. Background: Liver microsomes are vesicles of endoplasmic reticulum, rich in cytochrome P450 enzymes.
For data set [16], the system named is Mus musculus. Kind of data set: Anti-psoriatic activity in IMQ-induced BALB/c psoriasis mouse model assessed as reduction in IL-17a expression at 0.1 to 1 % treated topically by qRT-PCR analysis. The data set is classed as functional, organism-based. The note with it: dose 0.1-1 %.
Data set [17] concerns Mus musculus. Kind of data set: Anti-psoriatic activity in IMQ-induced BALB/c psoriasis mouse model assessed as reduction in erythema at 0.1 to 1 % treated topically by H and E staining based analysis. The note with it: dose 0.1-1 %. The data set is classed as functional, organism-based.
Data set [18] relates to Mus musculus. Kind of data set: Anti-psoriatic activity in IMQ-induced BALB/c psoriasis mouse model assessed as reduction in scaling at 0.1 to 1 % treated topically by H and E staining based analysis. The data set is classed as functional, organism-based. The note with it: dose 0.1-1 %.
Data set [19] concerns Mus musculus. Kind of data set: Anti-psoriatic activity in IMQ-induced BALB/c psoriasis mouse model assessed as reduction in scaling at 5 to 20 mg/kg, po by H and E staining based analysis. Particulars: dose 5-20 mg/kg. The data set is classed as functional, organism-based.

Activity calls are given as the source filed them. The calls are words filed in the database; no cut-off is given here.

Cytochrome P450 3A4, sequence (P08684 whole entry): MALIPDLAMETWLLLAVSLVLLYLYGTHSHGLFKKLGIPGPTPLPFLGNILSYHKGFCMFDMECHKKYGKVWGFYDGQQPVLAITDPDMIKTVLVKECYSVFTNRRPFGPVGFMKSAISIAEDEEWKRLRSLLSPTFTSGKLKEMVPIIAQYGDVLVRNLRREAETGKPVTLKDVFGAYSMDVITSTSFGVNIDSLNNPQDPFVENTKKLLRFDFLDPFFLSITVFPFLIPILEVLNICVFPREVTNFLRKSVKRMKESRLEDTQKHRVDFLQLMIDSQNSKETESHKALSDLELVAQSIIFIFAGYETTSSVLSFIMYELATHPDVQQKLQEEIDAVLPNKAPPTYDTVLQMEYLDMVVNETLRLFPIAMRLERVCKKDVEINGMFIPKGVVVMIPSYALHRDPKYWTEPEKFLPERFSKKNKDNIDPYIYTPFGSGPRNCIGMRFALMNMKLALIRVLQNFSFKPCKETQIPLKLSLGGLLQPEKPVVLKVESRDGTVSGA
Cytochrome P450 2C19, sequence (P33261 whole entry): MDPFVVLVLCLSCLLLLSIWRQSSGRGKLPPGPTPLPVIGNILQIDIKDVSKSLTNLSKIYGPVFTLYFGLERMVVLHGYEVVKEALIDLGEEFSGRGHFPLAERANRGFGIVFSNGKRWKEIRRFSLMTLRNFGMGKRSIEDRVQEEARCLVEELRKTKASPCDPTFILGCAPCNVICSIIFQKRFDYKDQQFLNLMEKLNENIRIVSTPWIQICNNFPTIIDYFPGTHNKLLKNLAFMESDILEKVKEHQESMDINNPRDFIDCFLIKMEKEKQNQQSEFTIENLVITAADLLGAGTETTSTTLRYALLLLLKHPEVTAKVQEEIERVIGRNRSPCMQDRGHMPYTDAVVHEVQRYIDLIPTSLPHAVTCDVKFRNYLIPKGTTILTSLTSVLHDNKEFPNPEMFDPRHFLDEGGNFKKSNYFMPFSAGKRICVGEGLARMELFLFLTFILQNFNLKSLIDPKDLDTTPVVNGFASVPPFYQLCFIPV

`Brc1ccc(-c2nc3ccc(Br)cn3n2)cc1`: the Activity result in data set [1] is recorded as “Dde”; in data set [4], “Active”; in data set [5] it was “Active”; in [6] it was “Active”. Further, the EC50 (commonly the concentration giving half of the maximal effect) in [2] turned out to be 0.03 nM. Also, in data set [3], the efflux ratio (as a rule, the permeability from basolateral to apical divided by that in the opposite direction, in the common usage) turned out to be 2.34. In addition, the outcome in the data set on HaCaT, in the data set with Mus musculus [16], in the data set on Mus musculus [17], with Mus musculus [18] and with Mus musculus [19] was Active. Further, the IC50 (in general, the midpoint of a concentration-inhibition curve) at 72 h in data set [7] is above 300 µM. Besides, the IC50 (in data set [8]; at Cytochrome P450 2C19; at Cytochrome P450 3A4) was above 10 µM throughout. Moreover, in [9], the Tmax (in general, the time at which the peak concentration occurs) was 49.8 min. The AUC(0-t) (usually the area under the concentration-time curve up to a stated or last time point) at 24 h in data set [10] came out at 4.64 µg·h/mL. The AUC(0-inf) (commonly total exposure, with the tail of the curve extrapolated) in data set [11] turned out to be 4.64 µg·h/mL. The MRT (usually the average time that molecules of a dose stay in the body) was 53.4 min in [12] and 109 min in data set [13]. Moreover, the Vd in data set [14] turned out to be 1.02 L/kg. The bioavailability (in general, the share of a dose that reaches the circulation, judged against a reference dose that is usually intravenous) in [15] amounted to 15.1%.
